Measurements: patent US20070140978A1, “Adrenergic complement inhaler” (priority 2004, published 2007)

Tested on: child with severe nasal congestion due to a cold
Assay: Severe nasal congestion due to a cold, child
Type: in vivo, human
Settings: every four hours
Text: A child presents with severe nasal congestion due to a cold. […] The child then supplements the oral medication by using the composition of this Example, one spray into each nostril, following each dose of the oral medication.

SMILES: CN[C@@H](C)[C@@H](O)c1ccccc1 [pseudophedrine]
- relief of nasal congestion, oral medication alone: limited relief
